{"source": "patent US8236488B2", "about": "“Method of screening for therapeutic compounds for vascular disorders and hypertension based on URAT1 activity modulation” (Human Cell Systems, Inc., priority 2003, dated 2012)", "type_in_all_cases": "cell-based", "key": {"rat VSMCs [1]": {"system": "rat VSMCs", "experiment": "14C-urate uptake into rat VSMCs in the presence of inhibitors or other organic anions", "conditions": "20 μM 14C-urate, 37° C., 5 minutes; for uric acid uptake into VSMCs in the presence of another organic anion: 100, 250 or 500 μM PAH or lactate; for uric acid uptake into VSMCs in the presence of organic anion transporter inhibitor: 0.1, 0.5 or 1 mM probenecid or 0.5, 1 or 10 μM benzbromarone", "description": "Further, the present inventors examined a mechanism of urate uptake under physiologic conditions (polarized conditions). First, the present inventors examined whether ^14C-urate competed with cold urate for uptake. The ^14C-urate uptake level by rat VSMCs was measured at 37° C. for 5 minutes using an uptake solution containing 20 μM ^14C-urate and 0, 0.1, 1, 5, 10, or 50 mg/dL cold urate. Each of the measurement results is the average±standard deviation of three wells. […] In FIG. 2, a vertical axis represents the ratio (%) of ^14C-urate uptake level determined when the ^14C-urate uptake level in the absence of cold urate is defined as 100%. A horizontal axis represents the concentration of cold urate (mg/dL).\nThe ^14C-urate uptake level was measured at 37° C. for 5 minutes using an uptake solution containing 20 μM ^14C-urate and 0, 0.1, 0.5 or 1 mM probenecid or 0, 0.5, 1 or 10 μM benzbromarone. Each of the measurement results is the average±standard deviation of three wells. […] In FIGS. 3 and 4, a vertical axis represents the ratio (%) of ^14C-urate uptake level determined when the ^14C-urate uptake level in the absence of probenecid (FIG. 3) or benzbromarone (FIG. 4) is defined as 100%. A horizontal axis in FIG. 3 represents the concentration of probenecid (mM), and a horizontal axis in FIG. 4 represents the concentration of benzbromarone (μM). An asterisk (*) in the FIGS. 3 and 4 indicate that there is a significant difference (p<0.05)\nFurther, another test was carried out to examine whether ^14C-urate competed with an organic anion such as para-amino hippurate (PAH) or lactate for uptake. The ^14C-urate uptake level by rat VSMCs was measured at 37° C. for 5 minutes using an uptake solution containing 20 μM ^14C-urate and 0, 100, 250 or 500 μM PAH or 0, 100, 250 or 500 lactate. In addition, the ^14C-urate uptake level by rat VSMCs was also measured using an uptake solution containing 20 μM ^14C-urate and 250 μM uric acid (UA). Each of the measurement results is the average±standard deviation of three wells. […] In FIGS. 5 and 6, a vertical axis represents the ratio (%) of ^14C-urate uptake level determined when the ^14C-urate uptake level in the absence of PAH (FIG. 5) or lactate (FIG. 6) is defined as 100%. A horizontal axis in FIG. 5 represents the concentration of PAH (μM), and a horizontal axis in FIG. 6 represents the concentration of lactate (μM). An asterisk (*) in FIGS. 5 and 6 indicate that there is a significant difference (p<0.05).\n(§1) In the following experiments, vascular smooth muscle cells (VSMCs) derived from rat aorta were used (see Zhang S, Yang Y, et al., Circulation., 2003; 107, 1539-44). These cells were cultured in Dulbecco' s Modified Eagle Medium (DMEM, GIBCO) containing 10% fetal bovine serum (FBS), 1% glutamine, and 1% penicillin/streptomycin solution (100 units/ml penicillin, 100 μg/mL streptomycin; GIBCO). The cultured VSMCs were transferred into wells of a 35-mm six-well culture plate (NUNC), and were then maintained at 37° C. in an atmosphere of 5% carbon dioxide and 95% air in a humidified tissue culture incubator. The culture medium was replaced every 2 days. The VSMCs used in the experiments were 5th to 12th generation cells.\nThe VSMCs (4×10^5 cells) were transferred into wells of a six-well culture plate together with 10% FBS-DMEM. After a lapse of one day, the VSMCs were placed in DMEM medium without serum and incubated over night to stop growth. In all the experiments, cells and all the solutions used were maintained at 37° C. […]"}, "rat VSMCs [2]": {"system": "rat VSMCs", "experiment": "Urate uptake into VSMCs under polarized and depolarized conditions", "conditions": "20 μM 14C-urate", "description": "Urate uptake into vascular smooth muscle cells (VSMCs) was examined under polarized and depolarized conditions. The ^14C-urate uptake level by VSMCs was measured using an uptake solution containing 20 μM ^14C-urate under polarized conditions (HEPES-physiological saline solution) or depolarized conditions (100 mM KCl uptake solution) for 120 minutes. The ^14C-urate uptake level was measured every one minute. Each of the measurement results is the average±standard deviation of three wells. In FIG. 1, a vertical axis represents the ^14C-urate uptake (CPM) level, a horizontal axis represents time (min), the symbol “□” represents a case where urate uptake was examined under depolarized conditions, and the symbol “♦” represents a case where urate uptake was examined under polarized conditions. […] It can be known that urate is rapidly taken up by rat VSMCs, that under depolarized conditions, urate uptake reaches steady state within about 15 minutes, and that under polarized conditions, urate uptake reaches steady state within about 30 minutes.\nFurther, in still another experiment, urate uptake was examined under polarized or depolarized conditions to determine whether urate uptake was voltage sensitive. The conditions for the experiment were the same as described above except that a culture solution for polarized conditions and a culture solution for depolarized conditions were different. More specifically, after 12 hour starvation, the serum free medium was removed and replaced with 0.45 mL of HEPES-physiological saline solution (PSS) containing 140 mM NaCl, 4 mM KCl, 2 mMCaCl2, 1 mM MgCl2, 5 mM glucose, and 16 mM HEPES-tris (pH 7.4) for polarized conditions, or 100 mM-KCl uptake solution containing 44 mM NaCl, 100 mM KCl, 2 mM CaCl2, 1 mM MgCl2, 5 mM glucose, and 16 mM HEPES-tris (pH 7.4) for depolarized conditions."}, "rat VSMCs [3]": {"system": "rat VSMCs", "experiment": "VSMC proliferation test (3H-thymidine uptake)", "conditions": "24 hour incubation; for effect of inhibitor alone on cell proliferation: absence of uric acid", "description": "Next, the present inventors examined whether an inhibitor of organic anion transportation inhibited the response of VSMC proliferation. Proliferation of VSMCs after 24 hour incubation was determined by measuring the ^3H-thymidine uptake level. This test was carried out for cases where no uric acid (UA) was present, 3 mg/dL uric acid (UA) was present, 3 mg/dL uric acid and 0.1, 0.5 or 1 mM probenecid were present, and 3 mg/dL uric acid (UA) and 0.5, 1 or 10 μM benzbromarone were present. In addition, the test was also carried out for cases where probenecid was present alone and benzbromarone was present alone. Each of the measurement results is the average±standard deviation of three wells (CPM). FIGS. 7 and 8 show the result of the test carried out to examine the effect of probenecid (FIG. 7) or benzbromarone (FIG. 8) on inhibition of response of VSMC proliferation. In FIGS. 7 and 8, a vertical axis represents the ^3H-thymidine uptake (CPM) level, a horizontal axis represents the concentration of uric acid or the concentration of an inhibitor.\nas §1\nThe VSMCs (4×10^5 cells) were transferred into wells of a six-well culture plate together with 10% FBS-DMEM, and were cultured for 24 hours. Then, the cells were starved for 48 hours in 0.5% FBS-DMEM, and the resting VSMCs were stimulated with 3 mg/dL uric acid containing 1 μCi ^3H-thymidine to detect DNA synthesis. Further, 2 μCi/mL ^3H-thymidine was added to each well 2 hours before harvesting the cells. The cells were washed with ice-cooled PBS three times, and were lysed in 1 mL of 1N NaOH. 0.5 mL of the cell lysate was added to 5 mL of scintillation fluid to measure the ^3H-thymidine uptake level by the cells. The ^3H-thymidine uptake level by the cells was expressed as CMP/well and counted in a liquid scintillation counter. Some experiments were carried out in the presence of different concentrations of probenecid or benzbromarone (organic anion transporter inhibitor)."}, "MCP-1": {"system": "MCP-1", "experiment": "ELISA of MCP-1 protein secreted into culture supernatant of rat VSMCs", "conditions": "24 hours", "description": "The present inventors have already reported that uric acid induces the production of MCP-1 (see Non-Patent Document 8). The production of MCP-1 in VSMC was examined. Rat VSMCs were cultured for 24 hours, and the amount of MCP-1 secreted into culture supernatant was measured by ELISA. A test was carried out for cases where 3 mg/dL uric acid (UA) was present, 3 mg/dL uric acid and 1 mM probenecid were present, and probenecid was present alone. In FIG. 10, a vertical axis represents the amount of MCP-1 (pg/1000 cells), and a horizontal axis represents cases where nothing was present (No UA), 3 mg/dL uric acid was present (UA), 3 mg/dL uric acid and 1 mM probenecid were present (UA+Prob), and probenecid was present alone (Prob), and two asterisks (**) indicate that there is a significant difference (p<0.05) when compared to a control. […] The VSMCs (5×10^4 cells/well) were placed in wells of a 24-well plate, and serum was deprived after reaching 70% confluence. Then, media with or without 3 mg/dL uric acid was added and the cells were cultured for 24 hours in the presence or absence of 1 mM probenecid. The amount of MCP-1 protein contained in supernatant was measured by ELISA (OptEIA MCP-1 set, BD Pharmingen), and corrected for cell number. Each experiment was repeated three times."}}, "data": [{"smiles": "O=c1[nH]c(=O)c2[nH]c(=O)[nH]c2[nH]1", "note": "[uric acid]", "values": [{"measurement": "competition between 14C-urate and cold urate for uptake by rat VSMCs", "setting": "rat VSMCs [1]; 0.1, 1, 5, 10 or 50 mg/dL cold urate", "result": "more effectively competed"}, {"measurement": "urate uptake level, depolarized versus polarized conditions", "setting": "rat VSMCs [2]; up to 120 minutes", "result": "larger under depolarized conditions than under polarized conditions"}, {"measurement": "time until urate uptake reaches steady state", "setting": "rat VSMCs [2]; depolarized conditions (100 mM KCl uptake solution)", "result": "≤ 15", "unit": "min"}, {"measurement": "time until urate uptake reaches steady state", "setting": "rat VSMCs [2]; polarized conditions (HEPES-physiological saline solution)", "result": "≤ 30", "unit": "min"}, {"measurement": "3H-thymidine uptake level by rat VSMCs", "setting": "rat VSMCs [3]; 3 mg/dL uric acid", "result": "increased"}]}, {"smiles": "Nc1ccc(C(=O)NCC(=O)O)cc1", "note": "[PAH, para-amino hippurate]", "values": [{"measurement": "uric acid uptake into VSMCs in the presence of another organic anion", "setting": "rat VSMCs [1]", "result": "inhibited"}]}, {"smiles": "CC(O)C(=O)O", "note": "(centres unmarked) [lactate]", "values": [{"measurement": "uric acid uptake into VSMCs in the presence of another organic anion", "setting": "rat VSMCs [1]", "result": "more weakly inhibited"}]}, {"smiles": "CCc1oc2ccccc2c1C(=O)c1cc(Br)c(O)c(Br)c1", "note": "[benzbromarone]", "values": [{"measurement": "uric acid uptake into VSMCs in the presence of organic anion transporter inhibitor", "setting": "rat VSMCs [1]", "result": "concentration-dependently reduced"}, {"measurement": "effect of inhibitor alone on cell proliferation", "setting": "rat VSMCs [3]", "result": "The same was observed"}]}, {"smiles": "CCCN(CCC)S(=O)(=O)c1ccc(C(=O)O)cc1", "note": "[probenecid]", "values": [{"measurement": "uric acid uptake into VSMCs in the presence of organic anion transporter inhibitor", "setting": "rat VSMCs [1]", "result": "concentration-dependently reduced"}, {"measurement": "uric acid-induced increase in the 3H-thymidine uptake level (VSMC proliferation)", "setting": "rat VSMCs [3]; 3 mg/dL uric acid plus inhibitor", "result": "concentration-dependently inhibited"}, {"measurement": "effect of inhibitor alone on cell proliferation", "setting": "rat VSMCs [3]", "result": "little effect on cell proliferation"}, {"measurement": "increase in uric acid-induced production of MCP-1", "setting": "MCP-1; 3 mg/dL uric acid and 1 mM probenecid", "result": "inhibited"}, {"measurement": "production of MCP-1 with inhibitor alone", "setting": "MCP-1; probenecid alone, no uric acid", "result": "not inhibited"}]}]}
